Laboratory results as given in publication PMC3823413 (Journal of Cellular and Molecular Medicine, 2008).

Key:
[1] = test system: fMLP-stimulated H2O2 production in human PMN; assay: Adenosine inhibition of fMLP-stimulated H2O2 production in human PMN; format: cell-based; settings: for IC50: Homo sapiens
human PMN [2] = settings: H2O2 production; PMN incubated with mediator for 6 hrs; mean (± S.E.M.)
human PMN [3] = assay: Vitality of human PMN after incubation with inflammatory mediators; format: cell-based; settings: dead cells after 6 hrs incubation with mediator; mean (± S.E.M.)
[4] = PMN pre-incubated with IFN-γ 6 hrs
[5] = PMN pre-incubated with IL-1 6 hrs
[6] = PMN pre-incubated with IL-8 6 hrs
[7] = PMN pre-incubated with LPS 10 μg/ml 6 hrs
[8] = PMN pre-incubated with TNF-α 6 hrs

Molecule: Nc1ncnc2c1ncn2[C@@H]1O[C@H](CO)[C@@H](O)[C@H]1O [adenosine]
- IC50 ([1]; 6 h, control (native) PMN, culture medium 6 hrs): 75 nM
- IC50 [1, 4]: 123 nM
- IC50 [1, 5]: 40 nM
- IC50 [1, 6]: 43 nM
- IC50 [1, 7]: 332 nM
- IC50 [1, 8]: 106 nM
- concentration reaching maximum inhibition ([1]; LPS-incubated PMN): 10^−5 M
- increase of the IC50 on the H2O2 production ([1]; LPS-treated (6 hrs) versus native human PMN): 4.4 fold
- Max. inhibition (6 S.E.M.) [1, 4]: 86.8 (± 4.3) %
- Max. inhibition (6 S.E.M.) [1, 5]: 78.6 (± 2.5) %
- Max. inhibition (6 S.E.M.) [1, 6]: 76.3 (± 5.8) %
- Max. inhibition (6 S.E.M.) [1, 7]: 75.2 (± 2.5) %
- Max. inhibition (6 S.E.M.) [1, 8]: 84.8 (± 3.6) %
- Max. inhibition (6 S.E.M.) ([1]; control (native) PMN, culture medium 6 hrs): 78.8 (± 1.5) %
- concentration reaching maximum inhibitory effects ([1]; untreated neutrophils): 10^−6 M

Molecule: IFN-γ: cytokine used for PMN stimulation
- Spontaneous activity (human PMN [2]): 36 (± 2.37) MFI

Molecule: IL-8: cytokine used for PMN stimulation
- Spontaneous activity (human PMN [2]): 30 (± 1.76) MFI
- PI-positive PMN (human PMN [3]): 1.74 (± 0.36) %

Molecule: TNF-α
- Spontaneous activity (human PMN [2]): 34 (± 1.51) MFI
- PI-positive PMN (human PMN [3]): 2.89 (± 0.39) %

B1: IFN-γ: cytokine used for PMN stimulation (protein, UniProt P01579 24-161, looked up)
Interferon gamma: QDPYVKEAENLKKYFNAGHSDVADNGTLFLGILKNWKEESDRKIMQSQIVSFYFKLFKNFKDDQSIQKSVETIKEDMNVKFFNSNKKKRDDFEKLTNYSVTDLNVQRKAIHELIQVMAELSPAAKTGKRKRSQMLFRG
- PI-positive PMN (human PMN [3]): 2.76 (± 0.37) %
